Data: paper PMC8674134, “Safety and efficacy of avapritinib in advanced systemic mastocytosis: the phase 1 EXPLORER trial” (Nature Medicine, 2021)

Legend:
[1] = test system: patients with AdvSM and other myeloid malignancies; assay: Safety: adverse events graded by NCI CTCAE v4.03, phase 1 EXPLORER trial; assay type: in vivo
Text: The safety population included all enrolled patients and was used to report AEs and PROs (in those who completed the questionnaire). The dose-determining population included all patients in a cohort in part 1 who received ≥21 prescribed avapritinib doses in C1 and completed follow-up through C1, or experienced DLT. The determination of the MTD and RP2D were based on the dose-determining population. […] The AdvSM safety population was also used to report AEs and OS. […] The response-evaluable population was used to report adjudicated response rates and PFS. The PK population comprised all patients with sufficient plasma concentration–time data to reliably estimate the PK parameters of avapritinib.
Safety assessments included determination of ECOG performance status, clinical laboratory testing, vital signs, electrocardiograms, brain imaging (MRI or CT scan) and physical examinations. AEs were graded according to National Cancer Institute Common Terminology Criteria (v4.03)[40]. Treatment-emergent AEs were defined as any AE occurring between the first dose of avapritinib through 30 d after the last dose of avapritinib, any event that was considered related to the study drug regardless of the start date of the event, or any event that was present at baseline but worsened intensity or was subsequently considered related to the study drug by the investigator.

[2] = test system: mast cell burden in patients with AdvSM; assay: Changes in measures of mast cell burden (BM mast cells, serum tryptase, spleen volume); assay type: in vivo, human
Description: (§1) Other secondary endpoints included PK, DOR and changes in measures of mast cell burden (percentage of BM mast cells, serum tryptase concentration, KIT D816V VAF by ddPCR (detection limit 0.17%), and spleen and liver volumes). PROs were measured by daily completion of AdvSM-SAF (described below) for patients in part 2 as a secondary outcome[37]–[39]. Exploratory endpoints included time to response, PFS and OS.
The percentage change from baseline in spleen and liver volume as measured by central radiographic assessment using an MRI or a CT scan was summarized over time in the safety population. In addition, maximum percentage reduction was presented in waterfall plots.
(§2) Responses were assessed according to the protocol schedule. Spleen size was assessed by palpation and by imaging with calculation of volume centrally. KIT D816V VAF in the BM (or in blood if unavailable) was centrally measured using a validated ddPCR assay with a lower limit of detection of 0.17% (Bio-Rad). Other somatic mutations in BM were centrally assayed at baseline by next-generation sequencing.

[3] = test system: KIT D816V variant allele fraction; assay: KIT D816V variant allele fraction in BM by central ddPCR; assay type: in vivo, human; conditions: for Complete elimination of measurable KIT D816V VAF, patients: post hoc
Description: as §1, §2

SM-associated symptoms = assay: On-study corticosteroid usage; assay type: in vivo, human
Description: At baseline, approximately one-third of patients overall (29 patients; 34%) were using corticosteroids. After baseline, as a result of improvement in SM-associated symptoms, 19 patients (66%) reduced their corticosteroid usage, of whom 12 (41%) patients discontinued corticosteroid use entirely, while 7 (24%) were able to reduce the dose.
Corticosteroid treatment, not exceeding doses administered during screening, was permitted; doses higher than 20 mg daily prednisone equivalent were avoided, and prolonged treatment (>14 d) with high-dose corticosteroids rendered patients ineligible for response assessment.

KIT D816V = test system: KIT D816V; parameters: method as in PMID 29093181; conditions: immunoblot in a xenograft model; cited from earlier work

## Cn1cc(-c2cc3c(N4CCN(c5ncc([C@@](C)(N)c6ccc(F)cc6)cn5)CC4)ncnn3c2)cn1 [avapritinib]
[1]; human, in vivo
  Arthralgia AE, patients: 3%
  Cognitive effects (memory impairment, cognitive disorder, confusional state and encephalopathy), patients: 30%
  Cognitive effects leading to treatment discontinuation, patients: 3%
  Discontinuation due to related AEs: 10%
  Discontinuation due to unrelated AEs: 9%
  Grade 1 skin hypopigmentation, patients: 3%
  Hair color changes, patients: 19%
  Hypokalemia AE, patients: 3%
  Intracranial bleeding (ICB) in the absence of prior severe thrombocytopenia (platelets <50 × 10^9/l), patients: 1%
  Intracranial bleeding (ICB), patients: 13%
  Intracranial bleeding: cerebral hemorrhage: 0 n (%)
  Median time to first dose reduction: 8 weeks
  Patients with at least one dose reduction due to AEs: 72%
  Peripheral edema AE, patients: 45%
[1]; in vivo
  Anaphylactic reaction: one
  ICB events associated with antecedent severe thrombocytopenia (platelet count <50 × 10^9/l): seven
  ICB events, asymptomatic (grade 1): Five
  ICB events, grade 2: two
  ICB events, grade 3: one
[1]; of nine patients with ICB, associated with head trauma
  ICB events, grade 5: one
[1]; one (ICB) considered treatment related
  Deaths due to AEs: six
[2]; 66 patients with a baseline spleen volume assessment
  Patients with spleen volume reduced by ≥35%: 82%
[2]; patients with AdvSM
  Patients with BM mast cells decreased by ≥50%: 92%
  Patients with mast cell aggregates eliminated: 77%
  Patients with serum tryptase reduced by ≥50%: 99%
  Patients with serum tryptase reduced to <20 ng ml^−1: 74%
[3]; patients with AdvSM, ddPCR
  Patients with KIT D816V VAF in BM reduced from baseline by ≥50%: 80%
[3]; patients with AdvSM, ddPCR limit of detection 0.17%
  Patients in whom KIT D816V VAF in BM became undetectable: 30%
[3]; best response CR (n = 8)
  Complete elimination of measurable KIT D816V VAF, patients: 63%
[3]; best response CRh (n = 8)
  Complete elimination of measurable KIT D816V VAF, patients: 50%
[3]; best response PR (n = 13)
  Complete elimination of measurable KIT D816V VAF, patients: 23%
[3]; clinical improvement (n = 2) or stable disease (n = 11)
  Complete elimination of measurable KIT D816V VAF, patients: 15%
SM-associated symptoms; 7 of 29 patients using corticosteroids at baseline
  Patients able to reduce the corticosteroid dose: 24%
SM-associated symptoms; 12 of 29 patients using corticosteroids at baseline
  Patients who discontinued corticosteroid use entirely: 41%
SM-associated symptoms; 19 of 29 patients using corticosteroids at baseline
  Patients who reduced their corticosteroid usage: 66%
KIT D816V
  In vivo IC90 for inhibition of KIT D816V in xenograft model: 0.189 µg/mL
